“Also recorded” adds a separate entry of the source. Bridges are numbered along the chain shown (N, C = ends).
Experiments:
TrkA = test system: T1, TrkA; experiment: Binding of 125I-NGF to TrkA on PC12 cells (p75NTR blocked with BDNF); parameters: species or system rat; details: 100 μM; in presence of 40 nM BDNF; ± SEM; 120 min
T1 construct: Receptor cross-linking studies were performed on PC12 rat pheochromocytoma cells; endogenous in cells; host or cells: PC12 rat pheochromocytoma cells (ATCC CRL 1721)
T1 sequence (P01139 122-239): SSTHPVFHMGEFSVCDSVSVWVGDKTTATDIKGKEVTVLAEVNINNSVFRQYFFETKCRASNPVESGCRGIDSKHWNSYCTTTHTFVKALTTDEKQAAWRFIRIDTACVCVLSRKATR
Description: PC12 cells were grown in RPMI with 10% heat inactivated donor horse serum and 5% fetal calf serum. […] The tubes were incubated for 2 hr at 4° C. and 100 μl aliquots (providing triplicate data points for each sample) were transferred to 400 μl microcentrifuges containing 200 μl of 10% glycerol in HKR. Tubes were centrifuged for 2 minutes at 5,000 rpm, the tip containing the cell pellet cut off and radioactivity bound to the cells was determined.

p75^NTR = experiment: 125I-BDNF binding to p75NTR; details: 100 μM Zn2+, n = 3; 120 min
Description: Full length (1-118) mouse NGF purified by HPLC from 2.5S NGF (purity greater than 95%) was obtained from Cedarlane Laboratories (Toronto, Ont). The iodination of NGF was performed as previously described (Sutter, A, Riopelle, R. J., Harris-Warrick, R. M. & Shooter, E. M. Nerve growth factor receptors. J. Biol. Chem. 254, 5972-5982 (1979)). […] PC12 cells were grown in RPMI with 10% heat inactivated donor horse serum and 5% fetal calf serum. Each data point was set up in a single tube containing ^125 I-NGF (at the required concentration), 400,000 cells (for a final call concentration of 10^6 /ml), BDNF (at 40 nM for TrkA binding) and NGF (at 10 nM for non-specific binding) as required. The tubes were incubated for 2 hr at 4° C. and 100 μl aliquots (providing triplicate data points for each sample) were transferred to 400 μl microcentrifuges containing 200 μl of 10% glycerol in HKR. Tubes were centrifuged for 2 minutes at 5,000 rpm, the tip containing the cell pellet cut off and radioactivity bound to the cells was determined.
Human recombinant BDNF and human recombinant NT-3 were obtained from Alomone Laboratories (Israel). The iodination, crosslinking, and binding experiments using BDNF and NT-3 were performed using the methods described above for NGF. Neurite outgrowth assays were performed as described in the presence of 4.0 nM NT-3 or 8.0 nM BDNF.

p75^NTR /TrkA = experiment: Receptor crosslinking of 125I-NGF with transition metal ions (receptor selectivity); format: binding
p75^NTR /TrkA, sequence (P01139 122-239): as above
p75^NTR /TrkA, sequence (P07174 30-425 partner): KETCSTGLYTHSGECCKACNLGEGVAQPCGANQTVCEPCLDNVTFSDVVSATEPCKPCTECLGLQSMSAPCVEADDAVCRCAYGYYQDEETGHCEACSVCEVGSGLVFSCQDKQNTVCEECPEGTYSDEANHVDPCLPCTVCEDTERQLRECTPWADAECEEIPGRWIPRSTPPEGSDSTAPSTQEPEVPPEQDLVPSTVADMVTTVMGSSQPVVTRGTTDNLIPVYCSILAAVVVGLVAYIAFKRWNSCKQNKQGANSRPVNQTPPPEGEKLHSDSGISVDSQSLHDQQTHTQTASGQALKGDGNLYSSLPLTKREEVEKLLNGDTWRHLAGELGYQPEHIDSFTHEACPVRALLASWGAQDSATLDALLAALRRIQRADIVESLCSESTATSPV
p75^NTR /TrkA, sequence (P35739 33-799 partner): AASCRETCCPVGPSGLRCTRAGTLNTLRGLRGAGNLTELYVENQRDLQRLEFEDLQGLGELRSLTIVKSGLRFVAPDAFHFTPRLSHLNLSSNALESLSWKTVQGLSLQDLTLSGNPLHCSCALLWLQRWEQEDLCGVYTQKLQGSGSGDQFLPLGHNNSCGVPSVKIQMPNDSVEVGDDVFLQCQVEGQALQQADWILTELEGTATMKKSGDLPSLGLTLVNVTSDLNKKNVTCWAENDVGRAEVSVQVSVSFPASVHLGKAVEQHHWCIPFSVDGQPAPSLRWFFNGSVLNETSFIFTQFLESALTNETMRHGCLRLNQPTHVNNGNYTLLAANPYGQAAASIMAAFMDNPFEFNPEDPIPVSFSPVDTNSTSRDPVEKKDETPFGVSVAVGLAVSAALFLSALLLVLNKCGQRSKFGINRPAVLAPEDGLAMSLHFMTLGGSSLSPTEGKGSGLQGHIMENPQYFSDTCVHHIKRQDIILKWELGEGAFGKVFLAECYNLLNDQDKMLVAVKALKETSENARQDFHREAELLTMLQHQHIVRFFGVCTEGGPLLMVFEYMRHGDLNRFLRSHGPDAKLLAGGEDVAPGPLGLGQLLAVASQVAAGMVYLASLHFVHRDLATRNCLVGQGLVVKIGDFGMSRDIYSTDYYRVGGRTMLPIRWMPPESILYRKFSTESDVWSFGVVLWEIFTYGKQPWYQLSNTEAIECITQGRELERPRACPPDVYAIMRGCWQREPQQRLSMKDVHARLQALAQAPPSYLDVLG
Description: To explore the ability of other transition metals to influence the biological activities of NGF, a series of cations known to mimic in certain respects the binding of zinc to proteins were tested. […] For this reason these ions were not tested in NGF- dependant growth phenomena. […] As these studies appeared to indicate potentially complex results upon metal ions binding to NGF, a receptor crosslinking system where specific receptor types could be identified was utilized.

NGF = biological target: T2, NGF (Mus musculus, UniProt P01139); experiment: Circular dichroism of NGF; details: 100 μM, 22° C.
T2 construct: homodimer
T2 sequence (P01139 122-239): as the sequence (P01139 122-239) above
Description: For conformation and dimer integrity studies, 0.1 nM ^125 I-NGF was incubated in the presence or absence of Zn^2+ in HKR buffer for 2 hours at 4° C. in a total volume of 0.1 ml. For crosslinking NGF […], 0.4 mM BS^3 was added to the mixture and incubated for 30 minutes at 25° C. The reaction was quenched with reducing SDS PAGE sample buffer, electrophoresed using a linear 15% acrylamide gel and autoradiographed. To assess the dimeric nature of NGF in the presence of Zn^2+, ^125 I-NGF was electrophoresed in a non-reducing SDS PAGE system as described, autoradiographed, and the labelled proteins excised from the gels and counted. For CD studies, NGF (50 μg/ml) was dissolved in 50 mM Tris-HCl buffer and spectra recorded using a computer controlled Jasco J-600 spectropolarimeter. Samples were acquired in the absence or presence of Zn^2+ (100 μM) at 22° C. in a 2 mm quartz cell averaged over eight scans. Modification of His residues by DEPC was carried out as previously described, where the molar excess of DEPC added and the extent of reaction was determined by evaluating the loss of binding activity of the modified product.

[1] = test system: dorsal root ganglion (DRG) neurons; experiment: NGF-dependent neurite growth of ED8 chick DRG neurons (FIG. 6, Terasaki plates); format: cell-based
Description: FIG. 6 is a graph showing the ability of R11 to inhibit the activity of NGF in vitro using a biological assay system. […] Dissociated cells enriched for sensory neurons were prepared from embryonic day 8 (ED8) chick dorsal root ganglion (DRG) as described (Sutter et al., J. Biol. Chem. 254: 5972-5982 (1979)). Neurons were seed into wells of Terasaki plates treated sequentially with poly-D-lysine and laminin at a density of 800-1000 cells/well in "synthetic" Dulbecco's modified Eagle medium (Bottenstein et al., Proc. Natl. Acad. Sci. USA 76: 514-517 (1979)) containing 1% fetal calf serum and NGF at […]. The cells were incubated with the additives indicated at 37° C. in a 5% CO2 atmosphere At 18-20 hours, the cells were fixed in 4% formaldehyde in phosphate-buffered saline and scored for neurite growth. The cells on the entire lower horizontal surface of the well were counted using an inverted microscope fitted with phase contrast optics. A neurite was scored if its caliber from origin to terminal was constant and its length was equal to or greater than 1.5 cell body diameters. Neurite growth was corrected for background (no NGF) growth in the presence and absence of peptide.
Such a profile is not typical of a competitive inhibitor. That is, a different dose response profile would be expected if R11 were simply competing with NGF for binding to a receptor. Neither of the less constrained synthetic Intermediates of R11, i.e., R11 (linear) or R11 (monocyclic), was as effective in blocking NGF-dependent neurite growth concentrations up to 200 μM.

NT-3 = details: Rashid et al. 1995; cited from earlier work
[2] = test system: kindling-induced seizures; details: kindling animal model of epilepsy (Rashid et al. 1995); cited from earlier work
TrkA receptor = experiment: Inhibition of TrkA phosphorylation by R11 in PC12 cells (Example 3); format: cell-based, rat
Description: Referring to FIG. 7C, the ability of R11 to influence TrkA phosphorylation was determined by incubating 10^7 PC12 cells (prepared as described above) in one mL HKR buffer with 50 ng NGF and the indicated concentrations of peptides for 15 min at 37° C. The cells were isolated by centrifugation, solubilized in lysis buffer and the TrkA receptor isolated as described above. The TrkA immunoprecipitated was dissociated in SDS reducing sample buffer and electrophoresed using a 6% polyacrylamide gel. The gel was then transferred to PVDF membrane (BioRad), probed with horseradish peroxidase-conjugated anti phosphotyrosine (RC20; Transduction) and developed using ECL (Amersham). All procedures were carried out according to the manufacturers' instructions.

[Zn+2] [Zn^2+]
steady-state specific binding of 125I-NGF (0.5 nM) to TrkA (TrkA): 19 ± 15 % Control
% Maximum p75NTR binding, 125I-BDNF (p75^NTR): 10.0 ± 4.5 % Maximum binding
Blocking of NGF binding to TrkA and p75NTR in receptor crosslinking (p75^NTR /TrkA): blocked binding to both receptors
Mean molar ellipticity of NGF by CD (NGF): significant decrease

NH2 -Cys-Gly-Ser-Glu-Val-Pro-Asn-Ser-Ala-Arg-Cys-Cys-Val-Cys-OH (H-CGSEVPNSARCCVC-OH; disulfide 1-14, 11-12) [R11, bicyclic peptide of NGF residues 68-58/108-110, two disulfide bonds]
Block of NGF-mediated neurite growth ([1]; 100 μM): 70%
IC50 ([1]; ED8 chick DRG neurons, FIG. 6, read-out: IC50, inhibition of NGF-dependent neurite growth): 10 µM
Block of NGF-mediated neurite growth ([1]; concentration similar to 200 μM): virtually all
Antagonism of NT-3 in vitro (NT-3): effective antagonist
Inhibition of seizure and mossy fiber sprouting [2]: inhibit both seizure and mossy fiber sprouting
NGF-induced TrkA phosphorylation (TrkA receptor; 200 μM, 50 ng NGF, 15 min at 37° C., PC12): abolished; also recorded: blocked
Basal TrkA phosphorylation (TrkA receptor; no NGF): no influence

— patent publication US6291247A, “Methods of screening for factors that disrupt neurotrophin conformation and reduce neurotrophin biological activity” (priority 1996, dated 2001)
